Where “and” joins values, the source holds several entries; their conditions need not be identical. Identical values can stand only once.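 Briefly, cells in 96-well plates were exposed to five compound concentrations for 48 h, and endpoints were estimated by linear interpolation. Here, GI50 denotes the concentration required for 50% inhibition of growth. TGI denotes the concentration required for complete inhibition of growth.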
Tests used:
Assay in all cases: inhibition of tumour cell growth, NCI panel, 48 h
HCC-2998 colon = tested on: HCC-2998 colon
SNB-75 CNS = tested on: SNB-75 CNS
HOP-92 NSCLC = tested on: HOP-92 NSCLC
SK-MEL-5 melanoma = tested on: SK-MEL-5 melanoma
A549 NSCLC = tested on: A549 NSCLC
NCI-H226 lung = tested on: NCI-H226 lung
SK-MEL-28 melanoma = tested on: SK-MEL-28 melanoma
U251 CNS = tested on: U251 CNS
SF-539 CNS = tested on: SF-539 CNS
SR leukemia = tested on: SR leukemia

SMILES | GI50 (HCC-2998 colon) [µM] | TGI (HCC-2998 colon) [µM] | GI50 (SNB-75 CNS) [µM] | TGI (SNB-75 CNS) [µM] | GI50 (HOP-92 NSCLC) [µM] | TGI (HOP-92 NSCLC) [µM] | GI50 (SK-MEL-5 melanoma) [µM] | TGI (SK-MEL-5 melanoma) [µM] | GI50 (A549 NSCLC) [µM] | TGI (A549 NSCLC) [µM] | GI50 (NCI-H226 lung) [µM] | TGI (NCI-H226 lung) [µM] | GI50 (SK-MEL-28 melanoma) [µM] | TGI (SK-MEL-28 melanoma) | GI50 (U251 CNS) [µM] | TGI (U251 CNS) [µM] | TGI (SF-539 CNS) [µM] | TGI (SR leukemia) | GI50 (SF-539 CNS) [µM]
COc1cc2c3c(n(CCN(C)C)c(=O)c2cc1OC)-c1cc2c(cc1C3=O)OCO2 | 3.5 | > 100 | 8.22 | > 100 | 26.7 | > 100 | 1.21 | 22.1 | 0.799 | > 100 | 1.08 | 57.9 | > 28.4 | > 100 µM | 2.64 | > 100 | 1.59 | – | –
CCCCCC(=O)OCC1(CO)C/C(=C\CC(C(C)C)C(C)C)C(=O)O1 (stereo unspecified) | – | > 100 | – | > 100 | – | > 100 | – | > 100 | – | > 100 | – | > 100 | – | > 100 µM | – | 85.3 | – | > 100 µM | –
CN1CCN(C(=S)N(C(=O)c2ccco2)c2ccccc2)CC1 | – | > 100 | – | > 100 | – | > 100 | – | > 100 | – | > 100 | – | > 100 | – | > 100 µM | – | > 100 | – | > 100 µM | –
[N-]=[N+]=Nc1c([N+](=O)[O-])c(Cl)nc2ccccc12 | – | 4.17 | – | 22.1 | – | 3.66 | – | 21.3 | – | 35.2 | – | 33.5 | – | 5.23 µM | – | 12.4 | 9.74 | – | –
Nc1nc(NNc2ccc(Cl)c(Cl)c2)cc(=O)[nH]1 | – | 44.7 | – | – | – | 79.8 | – | > 100 | – | > 100 | – | > 100 | – | > 100 µM | – | 68.3 | > 100 | > 100 µM | –
O=C1c2nn(-c3ccccc3)nc2C(c2ccccc2)N1c1ccccc1 (stereo unspecified) | – | > 100 | – | 81.2 | – | – | – | > 100 | – | > 100 | – | > 100 | – | > 100 µM | – | > 100 | > 100 | > 100 µM | –
Cc1cc2c(cc1C)[n+](=O)c(N1CCN(c3ccc([N+](=O)[O-])cc3)CC1)c(C#N)n2[O-] | – | > 100 | – | 21.7 | – | 56.7 | – | > 100 | – | > 100 | – | > 100 | – | > 100 µM | – | 80.9 | – | – | –
CN(C)CC(CO)(CN(C)C)CN(C)C | – | – | – | > 100 | – | > 100 | – | > 100 | – | > 100 | – | > 100 | – | > 100 µM | – | > 100 | > 100 | > 100 µM | –
O=C1c2ccccc2C(=O)N1CCCCCCNOCCCN1C(=O)c2ccccc2C1=O | – | > 100 | – | > 100 | – | > 100 | – | 30.8 | – | > 100 | – | > 100 | – | > 100 µM | – | > 100 | – | > 100 µM | –
CN1CCN(Cc2ccc(NC(=O)c3ccc(C#N)c(C#Cc4cnc(N)c5ncccc45)c3)cc2C(F)(F)F)CC1 | 3.89 | > 100 | – | – | 12.2 | 58.1 | 6.67 | 83.1 | – | – | – | – | – | – | – | – | 3.06 | – | 1.52
c1ccc2c3c([nH]c2c1)C1c2[nH]c4ccccc4c2CCN1CC3 | – | 25.9 | – | 38.8 | – | 15.4 | – | 28 | – | 36.2 | – | 37.6 | – | 31.7 µM | – | – | 31.3 | > 100 µM | –
COc1ccc(C2=NN(c3ccccc3)C(c3cc4cc(Br)ccc4nc3Cl)C2)cc1 (stereo unspecified) | – | – | – | > 25 | – | > 25 | – | > 25 | – | > 25 | – | > 25 | – | > 25 µM | – | – | > 25 | > 25 µM | –
COc1ccc(-n2c(C)nc3ccc(NC4OCC(O)C(O)C4O)cc3c2=O)cc1 (stereo unspecified) | – | > 100 | – | > 100 | – | – | – | > 100 | – | – | – | > 100 | – | > 100 µM and 57 µM | – | > 100 | – | 68.4 µM and 60.4 µM | –
COc1ccc([N-]/C(=N\n2c(=O)c(C)nn(C)c2=S)N(c2ccc(OC)cc2)c2nn3c(=O)c(C)n[n+](C)c3s2)cc1 | – | – | – | > 100 | – | > 100 | – | > 100 | – | > 100 | – | > 100 | – | > 100 µM | – | > 100 | > 100 | > 100 µM | –
N=C(N)n1[nH]c2c(c1=O)CCCC2 | – | > 100 | – | 99.7 | – | – | – | > 100 | – | > 100 | – | > 100 | – | > 100 µM | – | > 100 | > 100 | > 100 µM | –
Cc1ccc(/C(=C/C=C(C#N)C#N)Sc2cc(Cl)ccc2Cl)cc1 | – | – | – | 38.7 | – | – | – | 26.4 | – | > 100 | – | 13.6 | – | 28.9 µM | – | 15 | 12.4 | – | –
O=c1c2ccccc2nc(-c2ccccc2)n1NC(=S)Nc1ccc(Cl)cc1[N+](=O)[O-] | – | – | – | > 100 | – | > 100 | – | > 100 | – | > 100 | – | 82.4 | – | 82.4 µM | – | > 100 | > 100 | > 100 µM | –
O=[N+]([O-])c1cccc2nc3ccccc3c(NCCCN3CCOCC3)c12 | – | – | – | 0.114 | – | 0.0434 | – | 0.0263 | – | 0.0674 | – | 0.0501 | – | 0.138 µM | – | 0.14 | 0.138 | – | –
CCN1CC2=C(NC(=S)NC2c2cc(OC)c(OC)c(OC)c2)/C(=C/c2cc(OC)c(OC)c(OC)c2)C1 (stereo unspecified) | – | 88.8 | – | 20.8 | – | 60.4 | – | 40.1 | – | > 100 | – | > 100 | – | 47.2 µM | – | > 100 | – | – | –
CC(C)c1cccc(C(C)C)c1NC(=O)C(=O)C(C(=O)c1ccc2ccccc2c1)C1OC(=O)c2ccccc21 (stereo unspecified) | – | > 100 | – | – | – | > 100 | – | > 100 | – | > 100 | – | 81.5 | – | > 100 µM | – | > 100 | > 100 | > 100 µM | –
COc1ccc(C2ON(c3ccccn3)CC=C2C)cc1 (stereo unspecified) | – | > 100 | – | > 100 | – | – | – | > 100 | – | > 100 | – | > 100 | – | > 100 µM | – | > 100 | > 100 | > 100 µM | –
C=C(C)[C@@]1(O)CCC[C@H]1NC(=O)OC(C)(C)C | – | > 100 | – | > 100 | – | > 100 | – | > 100 | – | > 100 | – | > 100 | – | > 100 µM | – | > 100 | – | – | –

Source: PubChem BioAssay (NCI)
